Marks after values point to notes of the source that are not given here.

For assay [1], the system named is MELANODERM™ (MEL-300-B) human skin model. In words: Melanin levels in MELANODERM 3D human skin model. The format is cell-based. The following applies: vs water vehicle control. The method, then: The effect of 3,3′-thiodipropanoic acid or Thiodipropionic acid (TDPA) and Nicotinamide on melanin levels was investigated using a MELANODERM™ (MEL-300-B, MatTek Corp., Ashland, Mass.) human skin model. MELANODERM™ is a viable reconstituted three-dimensional human skin equivalent containing melanocytes derived from African-American donors. Tissues were maintained in culture medium EPI-100-NMM-113 at 37° C. as recommended by the manufacturer.
TDPA was dissolved in water to a final concentration of 1.0% (w/v). Nicotinamide was dissolved in the culture media to a final concentration of 0.1% (w/v). 25 μl of the TDPA solution was applied topically to the MELANODERM™ tissue while 0.1% Nicotinamide containing culture medium was added on days 1, 2, 4, 7, 9, and 11. Control tissues were treated with water vehicle only. The tissue was treated with both active lightening agents at “saturated concentration,” which is the highest concentration of treatment that is not toxic to the system.
On Day 14, tissues were collected and homogenized in a buffer containing 1% SDS, 50 mM EDTA, and 10 mM Tris, pH 6.8. To each homogenate, protease K (5 mg/ml) was added and incubated overnight at 45° C. Additional protease K was added and incubated for 4 hours at 45° C., followed by the addition of 0.5M sodium carbonate and 30% H2O2 and incubation at 80° C. for 30 minutes. The samples were cooled down to room temperature, and extracted with chloroform/methanol (2:1). After centrifugation at 10,000 g for 10 minutes, absorbance of the top phase was measured at 450 nm. Percent change in melanin levels in treated tissue was calculated relative to control.
The effect of TDPA and Soybean Trypsin Inhibitor (STI) on melanin levels was investigated using the MELANODERM™ human skin model according to the methods described in Example 1.

The next assay has as its system B16 mouse melanoma cells. In words: Melanin synthesis in B16 melanoma cell assay, normalized to MTT cell viability. The assay is classed as cell-based. The following applies: 7 days, vs water vehicle control, 6 replicates. The method, then: The effects of 3,3′-thiodipropanoic acid and Kojic acid on melanin levels were determined by performing assays using B16 melanoma cells. These cells are known to constitutively produce melanin and are a commonly utilized and accepted model system for monitoring the inhibition of melanin synthesis.
The B16 mouse melanoma cells were seeded (ATCC, cat. #: CRL-6475) into 96-well tissue culture-treated plates (BD Falcon) and treated with test actives or controls in DMEM without phenol red (Mediatech; cat. #: 17-205-CV). The cells were examined for their ability to modulate pigment formation. […] Tests were performed in 6 replicates each. Following the treatment period, the level of pigment produced or melanin synthesized was quantified by reading the absorbance at 540 nm using a standard microplate reader (Tecan Group Ltd.).
After quantifying the amount of melanin, cell viability was determined using the MTT conversion method. […] After quantifying the amount of melanin pigment produced, the cells were exposed to MTT dye solution (1 mg/ml) for two to three hours. […] MTT dye uptake and conversion by viable cells were determined by measuring the extracted formazan at 570 nm using a microplate reader. Total pigmentation was calculated, normalized to cell viability values and expressed as the average percent change in melanin level relative to control of sextuplicates performed.

Consider `NC(=O)c1cccnc1` [Nicotinamide, nicotinamide (3-pyridinecarboxamide), reference compound], for which, in assay [1] (Example 1, 0.1% (w/v) in culture medium, Day 14, average of three tissues), the “% CHANGE IN MELANIN” value is −16%*. For the molecule `O=c1cc(CO)occ1O` [Kojic Acid, Kojic acid (5-hydroxy-4-pyran-4-one-2-methyl), reference compound], the “% CHANGE IN MELANIN” value with B16 mouse melanoma cells (0.01% final concentration) is given as −47.6%*. Turning to `O=C(O)CCSCCC(=O)O` [TDPA, 3,3′-thiodipropionic acid], the “% CHANGE IN MELANIN” value in assay [1] (Example 1, 1% (w/v) in water, 25 μl topical, Day 14, average of three tissues) is recorded as −10%*; in assay [1] (Example 3, 1%, methods of Example 1) it was −9.1%; in the assay with B16 mouse melanoma cells (0.1% final concentration), −27.4%*.

B1: STI: Soybean Trypsin Inhibitor (STI), a known melanosome transfer inhibitor (protein, UniProt P01070 25-205, looked up)
Trypsin inhibitor A: DFVLDNEGNPLENGGTYYILSDITAFGGIRAAPTGNERCPLTVVQSRNELDKGIGTIISSPYRIRFIAEGHPLSLKFDSFAVIMLCVGIPTEWSVVEDLPEGPAVKIGENKDAMDGWFRLERVSDDEFNNYKLVFCPQQAEDDKCGDIGISIDHDDGTRRLVVSKNKPLVVQFQKLDKESL
For B1, the “% CHANGE IN MELANIN” value in assay [1] (Example 3, 0.1%, methods of Example 1) is −8.9%.

(Values after US10117821B2, “Topical lightening composition and methods of use thereof” (Avon Products, Inc., priority 2013, dated 2018).)
